Results taken from BindingDB's records for PubMed 35777718 (Wuxi Apptec, 2022).
pIC50: −log10 of the molar value.

Test: Inhibition of Kir2.1 (unknown origin)

SMILES	pIC50
C[C@]1(CN2Cc3nc(-c4ccc(F)cc4)sc3C2)CN=C(N)O1	< 4.88
C[C@]1(CN2Cc3nc(-c4ccc(F)cc4)sc3C2)Cn2cc([N+](=O)[O-])nc2O1	< 4.40
